row,Compound,melting point
1,COC(=S)NN=C1C(=O)Nc2ccc(C3=NNC(=O)SC3C)cc21 (centres undefined),245 °C
2,CCOC(=O)C1=C(C)NC(CN(C)C)=C(C(=O)OCC)C1c1ccccc1Br (centres undefined),142 to 143 °C
3,CCOC(=O)C[C@@H]1CCC/C1=C\Cc1c(O)c2c(c(C)c1CC)COC2=O,95 to 95.7 °C
4,COc1cc(N)c(Cl)cc1Cn1nc(-c2ccc(C(F)(F)F)cc2)[nH]c1=O,> 270 °C
5,CCNCCNc1ccc(NCCN(CC)CC)c2c1C(=O)c1c(O)ccc(O)c1C2=O,161 to 163 °C
6,CCCCCCCCCCCCCCOc1cccc(C(=O)N(Cc2ccccn2)C(C)=O)c1,66 to 67 °C
7,COC(=O)c1cc(Br)c(O)c(O)c1Cl,103 °C
8,O=C1CC(=CN2CCOCC2)Oc2c(O)cccc21,202 °C
9,COc1cc(C#Cc2cc(OC)c(OC(C)C)cc2OC(=O)CI)ccc1OC(C)C,127 to 128 °C
10,Cc1ccc(N2C(=O)CN3C(=O)CC[C@@H]32)cc1,149 to 150 °C
11,CCC1Cc2cc(OCC(=O)O)c(C)c(C)c2C1=O (centres undefined),206 °C
12,CCc1c(C(=O)c2cc(C)cc(C)c2)n(C/C=C/CO)c(=O)[nH]c1=O,172 to 173 °C
13,CC1CCC2(C)C(=CCC3C4CC(C)C(=O)C4(C)CCC32)C1 (centres undefined),109 to 110 °C
14,COC(=O)C=CC(C)C1=CCC2C3CC=C4CC(OC(C)=O)CCC4(C)C3CCC12C (centres undefined),121 to 122 °C
15,CCOC(=O)C1=CC2(CCC1S(=O)(=O)Nc1ccc(F)cc1Cl)OCCS2 (centres undefined),133 to 134 °C
16,CCC(=O)Nc1c(C(=O)c2cccc(C)c2)[nH]c2cc(Cl)ccc12,152 to 155 °C
17,COc1ccc(Nc2nc(N)nc3c(OC)cccc23)c(C)c1,185 to 187 °C
18,Cc1nn(C)c(C)c1S(=O)(=O)N1CCC2(CC1)CSC1=C(O2)c2ccccc2C(=O)C1=O,273 to 275 °C
19,COc1ccc(C=C(C)c2cc(OC)sc2C)cc1,112 to 113 °C
20,CCOC(=O)C1=C(C)NC2=C(C(=O)CCC2)C1c1nccn1C (centres undefined),271 to 272 °C

# Continued, values first:
row,melting point,Compound
1,202 to 205 °C,COc1ccccc1NC(=O)Nc1nc(Oc2ccc3ccccc3c2)nc(N(CCC(=O)O)Cc2ccc(C)cc2)n1
2,43 to 44 °C,O=C(CCCCl)c1ccc2ccccc2c1
3,68 to 70 °C,Cc1nc2n(c1CCN(C)C)CCCC2OCc1ccccc1 (centres undefined)
4,157 to 159 °C,O=c1[nH]c(COCc2ccccc2)nc2nccnc12
5,192 °C,Cn1cc(-c2cccc(Cl)c2)c(=O)c(-c2cccc(Br)c2)c1
6,265 to 266 °C,O=C(O)c1cccc(-c2cc(-c3ccc(Cl)cc3)no2)c1
7,158 °C,CC(=O)c1c[nH]c(-c2ccccc2)n1
8,210 to 211 °C,Cn1ncnc1COc1nn2c(-c3ccccc3)nnc2cc1N1CCOCC1
9,232 to 235 °C,N#Cc1nc2ccccc2n(-c2ccc(Cl)cc2)c1=O
10,110 °C,C[C@H](NC(=O)Nc1cccc(CC(=O)O)c1)C(=O)N1[C@@H](c2ccccc2F)SC[C@H]1C(=O)OC(C)(C)C
11,180 to 181 °C,O=C(Nc1ccc(CN2CCCCC2)cc1)C1=Cc2cc(C3CCCCC3)ccc2CC1
12,117 °C,Fc1ccc(Cn2c(OC3CCN(Cc4ccccc4)CC3)nc3cncnc32)cc1
13,40 °C,CSc1cnc2ccccc2c1
14,120 °C,CNC(=O)[C@@H]1CSCN1S(=O)(=O)c1ccc(Cl)c(COc2cccc3c(-n4ccnc4)cc(C)nc23)c1Cl
15,199 to 201 °C,COc1cccc(C=C2NC(=O)NC2=O)c1OCCc1ccccc1
16,144 to 146 °C,N=C(NS(=O)(=O)C=Cc1ccc(Cl)c(Cl)c1)c1ccccc1
17,254 to 255 °C,C[C@H]1CC[C@H](Nc2nccc(-n3ncc4c([N+](=O)[O-])cccc43)n2)CC1
18,223 to 225 °C,CCCn1c(COCC)nc2c(N)nc3ccc(OCC(=O)N4CCS(=O)(=O)CC4)cc3c21
19,222 °C,Clc1nc(NCc2ccc3c(c2)OCO3)c2c3c(sc2n1)CCCC3

# Reference: a melting point compilation (Tetko et al.; mined from patent text by program, amines drawn as free bases though some values may be those of a salt)
